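Five compound concentrations were applied to cells in 96-well plates for 48 hours; endpoints were derived by simple linear interpolation of the resulting dose-response curve. At the GI50, growth is halved. TGI marks complete inhibition of growth.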
How the values were obtained:
Experiment in all cases: NCI tumour cell line growth inhibition, 48 h
[1] = system: CCRF-CEM leukemia
[2] = system: LOX IMVI melanoma
[3] = system: NCI-H23 lung
[4] = system: IGROV1 ovarian
[5] = system: SF-539 CNS
[6] = system: MDA-MB-231 breast
[7] = system: SW-620 colon
[8] = system: UACC-257 melanoma
[9] = system: DU-145 prostate
[10] = system: A549 NSCLC

C/C([O-])=C1\Cc2ccccc2C1=O.C/C([O-])=C1\Cc2ccccc2C1=O.CC[O-].CC[O-].[Ti+4]
GI50 [1]: 13.9 µM
TGI [1]: > 70.2 µM
GI50 [2]: 13 µM
TGI [2]: 32 µM
GI50 [3]: 20.2 µM
TGI [3]: 62.2 µM
GI50 [4]: 8.46 µM
TGI [4]: 39.5 µM
GI50 [5]: 13.6 µM
TGI [5]: 33.1 µM
GI50 [6]: 12.9 µM
TGI [6]: 70.9 µM
GI50 [7]: 24.8 µM
TGI [7]: > 84.9 µM
GI50 [8]: 38.6 µM
TGI [8]: > 100 µM
GI50 [9]: 26.4 µM
TGI [9]: > 100 µM
GI50 [10]: 28.5 µM
TGI [10]: > 100 µM

CC(C)C[C@H](NC(=O)[C@H]1O[C@@H]1C(=O)O)C(=O)NCCc1ccc(O)cc1
GI50 [1]: > 100 µM
TGI [1]: > 100 µM
GI50 [2]: 74.1 µM
TGI [2]: > 100 µM
GI50 [3]: > 100 µM
TGI [3]: > 100 µM
GI50 [4]: > 100 µM
TGI [4]: > 100 µM
GI50 [5]: > 100 µM
TGI [5]: > 100 µM
GI50 [6]: > 100 µM
TGI [6]: > 100 µM
GI50 [7]: > 100 µM
TGI [7]: > 100 µM
GI50 [8]: > 100 µM
TGI [8]: > 100 µM
GI50 [9]: > 100 µM
TGI [9]: > 100 µM
GI50 [10]: > 100 µM
TGI [10]: > 100 µM

O=C1C=C[C@@]23C[C@@H](Nc4c(O)c5c6c(c42)=NCCC=6C=N5)SC3=C1
TGI [1]: > 27 µM
GI50 [2]: 1.82 µM
TGI [2]: 3.78 µM
GI50 [3]: 2.52 µM
TGI [3]: 7.01 µM
GI50 [4]: 2.01 µM
TGI [4]: 4.35 µM
GI50 [5]: 3.08 µM
TGI [5]: 9.58 µM
GI50 [6]: 1.62 µM
TGI [6]: 3.35 µM
GI50 [7]: 1.68 µM
TGI [7]: 3.31 µM
GI50 [8]: 1.67 µM
TGI [8]: 3.04 µM
GI50 [9]: 17.1 µM
TGI [9]: 30.9 µM
GI50 [10]: 8.62 µM
TGI [10]: 24.4 µM

COc1cc(C(O)c2nc3ccccc3s2)cc(OC)c1OC (centres undefined)
GI50 [1]: 49.5 µM
TGI [1]: > 100 µM
GI50 [2]: 50.6 µM
TGI [2]: > 100 µM
GI50 [3]: 7.32 µM
TGI [3]: > 100 µM
GI50 [4]: 34.3 µM
TGI [4]: > 100 µM
GI50 [5]: > 100 µM
TGI [5]: > 100 µM
GI50 [6]: 58.7 µM
TGI [6]: > 100 µM
GI50 [7]: > 100 µM
TGI [7]: > 100 µM
GI50 [8]: 26 µM
TGI [8]: > 100 µM
GI50 [9]: > 100 µM
TGI [9]: > 100 µM
GI50 [10]: 86.7 µM
TGI [10]: > 100 µM

O=Cc1cn(Cc2cccc(Cl)c2)c2ccccc12
GI50 [1]: 9.99 µM
TGI [1]: 50.3 µM
GI50 [2]: 7.4 µM
TGI [2]: 21 µM
GI50 [3]: 9.33 µM
TGI [3]: 26.9 µM
GI50 [4]: 0.263 µM
TGI [4]: 14.7 µM
GI50 [5]: 14.7 µM
TGI [5]: 28 µM
GI50 [6]: 7.72 µM
TGI [6]: 21.5 µM
GI50 [7]: 7.37 µM
TGI [7]: 23.1 µM
GI50 [8]: 1.05 µM
TGI [8]: 3.63 µM
GI50 [9]: 12.5 µM
TGI [9]: 25 µM
GI50 [10]: 15.9 µM
TGI [10]: 48.5 µM

COc1ccc2c(c1)c(-c1nc(-c3c[nH]c4ncccc34)cs1)cn2CCCCN1CCOCC1
GI50 [1]: 2.12 µM
TGI [1]: 5.1 µM
GI50 [2]: 1.71 µM
TGI [2]: 3.19 µM
GI50 [3]: 2.14 µM
TGI [3]: 5.08 µM
GI50 [4]: 2.48 µM
TGI [4]: 8.28 µM
GI50 [5]: 1.67 µM
TGI [5]: 3.11 µM
GI50 [6]: 1.7 µM
TGI [6]: 3.5 µM
GI50 [7]: 1.99 µM
TGI [7]: 3.92 µM
GI50 [8]: 2.18 µM
TGI [8]: 3.85 µM
GI50 [9]: 3.07 µM
TGI [9]: 9.76 µM
GI50 [10]: 2.23 µM
TGI [10]: 4.28 µM

Cn1ccnc1C(=O)/C=C/c1ccc(CC(=O)Nc2ccc(S(F)(F)(F)(F)F)cc2)cc1
GI50 [1]: 0.538 µM
TGI [1]: 16.7 µM
GI50 [2]: 1.19 µM
TGI [2]: 3.34 µM
GI50 [3]: 2.37 µM
TGI [3]: 4.82 µM
GI50 [4]: 2.62 µM
TGI [4]: 7.29 µM
GI50 [5]: 1.02 µM
TGI [5]: 3.26 µM
GI50 [6]: 2.91 µM
TGI [6]: 6.66 µM
GI50 [7]: 1.03 µM
TGI [7]: 4.09 µM
GI50 [8]: 4.35 µM
TGI [8]: 10.5 µM
GI50 [9]: 2.25 µM
TGI [9]: 4.53 µM
GI50 [10]: 3.32 µM
TGI [10]: 9.15 µM

CC(C)[C@@]12C[C@@H](OC(=O)COC(=O)/C=C/c3ccccc3)[C@@](C)(O1)[C@@H]1CC[C@@H](C)[C@H]1[C@@H]2OC(=O)/C=C/c1ccccc1
GI50 [1]: > 100 µM
TGI [1]: > 100 µM
GI50 [2]: > 100 µM
TGI [2]: > 100 µM
GI50 [3]: > 100 µM
TGI [3]: > 100 µM
GI50 [4]: > 100 µM
TGI [4]: > 100 µM
GI50 [5]: > 100 µM
TGI [5]: > 100 µM
GI50 [6]: > 100 µM
TGI [6]: > 100 µM
GI50 [7]: > 100 µM
TGI [7]: > 100 µM
GI50 [8]: > 100 µM
TGI [8]: > 100 µM
GI50 [9]: > 100 µM
TGI [9]: > 100 µM
GI50 [10]: > 100 µM
TGI [10]: > 100 µM

Cc1nc2sc(C(=O)Nc3cccc4ccccc34)c(N)c2cc1C(=O)/C=C/c1ccccc1
GI50 [1]: 0.178 µM
TGI [1]: > 24.9 µM
GI50 [2]: 0.183 µM
TGI [2]: 0.64 µM
GI50 [3]: 0.862 µM
TGI [3]: 4.07 µM
GI50 [4]: 0.301 µM
TGI [4]: 1.3 µM
GI50 [5]: 0.265 µM
TGI [5]: 1.16 µM
GI50 [6]: 0.709 µM
TGI [6]: 2.61 µM
GI50 [7]: 0.21 µM
TGI [7]: 1.66 µM
GI50 [8]: 5.09 µM
TGI [8]: > 30.3 µM
GI50 [9]: 0.822 µM
TGI [9]: 3.6 µM
GI50 [10]: 0.463 µM
TGI [10]: > 50 µM

C=CC1=C[C@@H]2[C@@H]3O[C@]4(CC[C@H](O4)[C@@H](C)C[C@@H](O)C3=O)C[C@H](O)C3=NCC[C@@]32CC1
GI50 [1]: < 0.00333 µM
TGI [1]: > 33.3 µM
GI50 [2]: < 0.00333 µM
TGI [2]: < 0.00333 µM
GI50 [3]: < 0.00333 µM
TGI [3]: < 0.00333 µM
GI50 [4]: < 0.00333 µM
TGI [4]: 0.00337 µM
GI50 [5]: < 0.00333 µM
TGI [5]: < 0.00333 µM
GI50 [6]: < 0.00333 µM
TGI [6]: 0.0121 µM
GI50 [7]: < 0.00333 µM
TGI [7]: 0.00523 µM
GI50 [8]: < 0.00333 µM
TGI [8]: 0.00486 µM
GI50 [9]: < 0.00333 µM
TGI [9]: 0.00335 µM
GI50 [10]: < 0.00333 µM
TGI [10]: 0.00459 µM

CCc1cccc2c3c(sc12)C(c1ccc(Cl)cc1)C(C#N)=C(N)O3 (centres undefined)
GI50 [1]: 0.391 µM
TGI [1]: 21.4 µM
GI50 [2]: 0.545 µM
TGI [2]: 4.22 µM
GI50 [3]: 0.692 µM
TGI [3]: 5.18 µM
GI50 [4]: 0.53 µM
TGI [4]: 11.1 µM
GI50 [5]: 0.36 µM
TGI [5]: 1.56 µM
GI50 [6]: 1.56 µM
TGI [6]: 7.72 µM
GI50 [7]: 0.45 µM
TGI [7]: 12.2 µM
GI50 [8]: 8.64 µM
TGI [8]: 33.1 µM
GI50 [9]: 0.596 µM
TGI [9]: 11.4 µM
GI50 [10]: 0.736 µM
TGI [10]: 12.9 µM

O=C(/C=C/c1cccs1)c1ccc(Nc2nc(Nc3ccc(F)cc3)nc(Nc3ccc(F)cc3)n2)cc1
GI50 [1]: 40.9 µM
TGI [1]: > 100 µM
GI50 [2]: 32.1 µM
TGI [2]: > 100 µM
GI50 [3]: 24.2 µM
TGI [3]: 71.2 µM
GI50 [4]: 18 µM
TGI [4]: 41 µM
GI50 [5]: 17.8 µM
TGI [5]: 35.7 µM
GI50 [6]: 34.7 µM
TGI [6]: > 100 µM
GI50 [7]: 28.3 µM
TGI [7]: 96.4 µM
GI50 [8]: 55.1 µM
TGI [8]: > 100 µM
GI50 [9]: 52.7 µM
TGI [9]: > 100 µM
GI50 [10]: 3.87 µM
TGI [10]: 22.5 µM

Reference: PubChem BioAssay (NCI)
